Assay results: patent US20140309210A1, “INDAZOLE COMPOUNDS, COMPOSITIONS AND METHODS OF USE THEREOF” (Genentech, Inc., priority 2011, published 2014)

Molecular target: T1, purified ITK (Invitrogen PV3875) (Homo sapiens, UniProt Q08881)
T1 construct: purchased Invitrogen PV3875
T1 sequence (Q08881 1-620): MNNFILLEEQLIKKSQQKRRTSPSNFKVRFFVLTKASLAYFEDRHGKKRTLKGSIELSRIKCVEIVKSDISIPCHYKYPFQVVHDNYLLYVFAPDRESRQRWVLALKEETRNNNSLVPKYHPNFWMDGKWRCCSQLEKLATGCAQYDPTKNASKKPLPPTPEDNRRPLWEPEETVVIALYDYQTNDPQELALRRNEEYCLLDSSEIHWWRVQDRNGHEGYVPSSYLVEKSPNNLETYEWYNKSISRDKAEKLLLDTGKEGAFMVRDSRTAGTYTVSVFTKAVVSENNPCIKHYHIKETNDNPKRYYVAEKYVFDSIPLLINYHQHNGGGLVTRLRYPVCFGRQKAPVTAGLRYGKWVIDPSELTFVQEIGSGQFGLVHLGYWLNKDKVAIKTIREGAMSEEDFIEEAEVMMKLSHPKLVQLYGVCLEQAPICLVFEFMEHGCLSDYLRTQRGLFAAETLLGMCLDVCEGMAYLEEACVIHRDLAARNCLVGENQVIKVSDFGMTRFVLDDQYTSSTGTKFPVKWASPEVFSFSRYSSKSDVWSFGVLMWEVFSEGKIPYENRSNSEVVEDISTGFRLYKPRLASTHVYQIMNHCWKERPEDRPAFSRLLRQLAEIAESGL
Assay: ITK peptide phosphorylation assay (Caliper LabChip or LCMS)
Type: biochemical
Protocol: The ability of purified ITK (Invitrogen PV3875) to catalyze peptide phosphorylation is monitored using a Caliper LabChip 3000 microfluidic unit (Caliper assay) or by liquid chromatography-mass spectrometry (LCMS) using a Waters Acquity system (LCMS assay). […] Reactions are quenched by the addition of 2,2′,2″,2′″-(ethane-1,2-diyldinitrilo)tetraacetic acid (50 mM final). Non-phosphorylated substrate and phosphorylated product peptides are separated and quantified using a Caliper LabChip 3000 instrument. […] Reactions are quenched by the addition of trichloroacetic acid (5% v/v final). Non-phosphorylated substrate and phosphorylated product peptides are separated by ultra performance LC and detected by a coupled triple quadrupole MS device applying multiple reaction monitoring (MRM) for quantification. The area of the MRM-extracted mass signal is used to assess the inhibition by test compounds. Equilibrium dissociation constant (Ki) values for ITK inhibitors are calculated from plots of activity vs. inhibitor concentration using Morrison's quadratic equation that accounts for the potential of tight binding, and by also applying the conversion factor that accounts for competitive inhibition and the concentration of ATP used in the assay relative to its apparent Michaelis constant (Km,app).

[1] = Table 2, Examples 1-140, class symbols
[2] = Table 3, specific values for certain examples

Molecule `CN(C)CCC(c1ccccc1)n1cc(NC(=O)c2n[nH]c3ccccc23)cn1` (centres unmarked) [Example 268, N-[1-[3-(dimethylamino)-1-phenyl-propyl]pyrazol-4-yl]-1H-indazole-3-carboxamide] has a Ki (Table 1, Examples 141-279) of 5.98 nM.
`N#Cc1cccc(Cn2cc(NC(=O)c3n[nH]c4cc(-c5cccnc5)c(F)cc34)cn2)c1` [Example 153, N-[1-[(3-cyanophenyl)meth-yl]pyrazol-4-yl]-5-fluoro-6-(3-pyridyl)-1H-indazole-3-carboxamide] showed a Ki (Table 1, Examples 141-279) of 57.5 nM.
`CN(C)CCNCc1ccc(Cn2cc(NC(=O)c3n[nH]c4ccccc34)cn2)cc1` [Example 104, N-(1-(4-((2-(dimethylamino)ethylamino)methyl)benzyl)-1H-pyrazol-4-yl)-1H-indazole-3-carboxamide] gave a Ki [1] of 1 to 100 nM.
`CNC(=O)c1ccc(Cn2cc(NC(=O)c3n[nH]c4cc(-c5cn[nH]c5)ccc34)cn2)o1` [Example 15, 6-(1H-Pyrazol-4-yl)-1H-indazole-3-carboxylic acid [1-(5-methylcarbamoyl-furan-2-ylmethyl)-1H-pyrazol-4-yl]-amid] was tested, and the Ki [1] was 1 to 100 nM.
Molecule `CC(C)CN1CCOC(Cn2cc(NC(=O)c3n[nH]c4cc(-c5cn[nH]c5)ccc34)cn2)C1` (centres unmarked) [Example 252, N-[1-[(4-isobutylmorpholin-2-yl)methyl]pyrazol-4-yl]-6-(1H-pyrazol-4-yl)-1H-indazole-3-carboxamide] has a Ki (Table 1, Examples 141-279) of 3.58 nM.
With `COc1cc(Cn2cc(NC(=O)c3n[nH]c4ccccc34)cn2)cc(OC)c1` [Example 70, N-(1-(3,5-dimethoxybenzyl)-1H-pyrazol-4-yl)-1H-indazole-3-carboxamide] the Ki [1] was 1 to 100 nM.
`CN1CC=C(c2ccc3c(C(=O)Nc4cnn(Cc5cccc(C#N)c5)c4)n[nH]c3c2)CC1` [Example 165, N-[1-[(3-cyanophenyl)meth-yl]pyrazol-4-yl]-6-(1-methyl-3,6-dihydro-2H-pyridin-4-yl)-1H-indazole-3-carboxamide] gave a Ki (Table 1, Examples 141-279) of 654 nM.
In the case of `O=C(Nc1cnn(CC2CNC2)c1)c1n[nH]c2cc(-c3cn[nH]c3)ccc12` [Example 262, N-[1-(azetidin-3-ylmethyl)pyrazol-4-yl]-6-(1H-pyrazol-4-yl)-1H-indazole-3-carboxamide], the Ki (Table 1, Examples 141-279) is reported as 4.69 nM.
With `O=C(Nc1cnn(Cc2cccc(-c3cccnc3)c2)c1)c1n[nH]c2cc(-c3cn[nH]c3)ccc12` [Example 36, 6-(1H-Pyrazol-4-yl)-1H-indazole-3-carboxylic acid [1-(3-pyridin-3-yl-benzyl)-1H-pyrazol-4-yl]-amide] the Ki [1] was 0.01 to 1 nM.
With `O=C(Nc1cnn(Cc2ccc(OC(F)(F)F)cc2)c1)c1n[nH]c2ccccc12` [Example 72, N-(1-(4-(trifluoromethoxy)benzyl)-1H-pyrazol-4-yl)-1H-indazole-3-carboxamide] the Ki [1] was greater than 100 nM.
In the case of `CN(C)CCC(c1cccc(Cl)c1)n1cc(NC(=O)c2n[nH]c3cc(-c4cn[nH]c4)ccc23)cn1` (centres unmarked) [Example 247, N-[1-[1-(3-chlorophenyl)-3-(dimethylami-no)propyl]pyrazol-4-yl]-6-(1H-pyrazol-4-yl)-1H-indazole-3-carboxamide], the Ki (Table 1, Examples 141-279) is reported as 0.127 nM.
For `COC1CCN(c2ccc3c(C(=O)Nc4cnn(Cc5cccc(C#N)c5)c4)n[nH]c3c2)C1` (centres unmarked) [Example 208, N-[1-[(3-cyanophenyl)meth-yl]pyrazol-4-yl]-6-(3-methoxypyrrolidin-1-yl)-1H-indazole-3-carboxamide], the Ki (Table 1, Examples 141-279) was 458 nM.
`Cn1cnc(-c2ccc3c(C(=O)Nc4cnn(Cc5ccccc5)c4)n[nH]c3c2)c1` [Example 87, N-(1-benzyl-1H-pyrazol-4-yl)-6-(1-methyl-1H-imidazol-4-yl)-1H-indazole-3-carboxamide] was tested, and the Ki [1] was 1 to 100 nM.
Work on `O=C(Nc1cnn(Cc2cncs2)c1)c1n[nH]c2cc(-c3cn[nH]c3)ccc12` [Example 163, 6-(1H-pyrazol-4-yl)-N-[1-(thiazol-5-ylmethyl)pyrazol-4-yl]-1H-indazole-3-carboxamide] yielded a Ki (Table 1, Examples 141-279) of 1.16 nM.
Molecule `CCNCc1cccc(Cn2cc(NC(=O)c3n[nH]c4ccccc34)cn2)c1` [Example 99, N-(1-(3-((ethylamino)methyl)benzyl)-1H-pyrazol-4-yl)-1H-indazole-3-carboxamide] has a Ki [1] of 1 to 100 nM.
For `CN(C)CC(c1ccccc1)n1cc(NC(=O)c2n[nH]c3cc(-c4cn[nH]c4)ccc23)cn1` (centres unmarked) [Example 135, N-(1-(2-(dimethylamino)-1-phenylethyl)-1H-pyrazol-4-yl)-6-(1H-pyrazol-4-yl)-1H-indazole-3-carboxamide], the Ki [1] was 0.01 to 1 nM.
For `Cn1nc(C(F)(F)F)cc1-c1ccc2c(C(=O)Nc3cnn(Cc4cccc(C#N)c4)c3)n[nH]c2c1` [Example 198, N-[1-[(3-cyanophenyl)meth-yl]pyrazol-4-yl]-6-[2-methyl-5-(trifluorometh-yl)pyrazol-3-yl]-1H-indazole-3-carboxamide], the Ki (Table 1, Examples 141-279) was 183 nM.
For `O=C(Nc1cnn(Cc2csc(C3CCNCC3)n2)c1)c1n[nH]c2cc(-c3cn[nH]c3)ccc12` [Example 160, N-[1-[[2-(4-piperidyl)thiazol-4-yl]methyl]pyrazol-4-yl]-6-(1H-pyrazol-4-yl)-1H-indazole-3-carboxamide], the Ki (Table 1, Examples 141-279) was 4.65 nM.
With “6-(6-methoxy-3- pyridyl)-N-[1-(3- pyridylmethyl)py- razol-4-yl]-1H- indazole-3- carboxamide [Example 244]” the Ki (Table 1, Examples 141-279) was 32.3 nM.
In the case of `CCC(c1ccccc1)n1cc(NC(=O)c2n[nH]c3cc(-c4cncc(OC)c4)ccc23)cn1` (centres unmarked) [Example 211, 6-(5-methoxy-3-pyridyl)-N-[1-(1-phenylpropyl)py-razol-4-yl]-1H-indazole-3-carboxamide], the Ki (Table 1, Examples 141-279) is reported as 53.8 nM.
Work on `O=C(Nc1cnn(Cc2cccc(CNC3CCC3)c2)c1)c1n[nH]c2ccccc12` [Example 94, N-(1-(3-((cyclobutylamino)methyl)benzyl)-1H-pyrazol-4-yl)-1H-indazole-3-carboxamide] yielded a Ki [1] of 1 to 100 nM.
With `N#Cc1cccc(Cn2cc(NC(=O)c3n[nH]c4cc(F)ccc34)cn2)c1` [Example 3, N-(1-(3-cyanobenzyl)-1H-pyrazol-4-yl)-6-fluoro-1H-indazole-3-carboxamide] the Ki [1] was 1 to 100 nM and the Ki [2] was 18.5 nM.
Molecule `O=C(Nc1cnn(Cc2ccc(CNCC3CC3)cc2)c1)c1n[nH]c2ccccc12` [Example 108, N-(1-(4-((cyclopropylmethylamino)methyl)benzyl)-1H-pyrazol-4-yl)-1H-indazole-3-carboxamide] has a Ki [1] of 1 to 100 nM.
In the case of `O=C(Nc1cn[nH]c1)c1n[nH]c2cc(-c3cn[nH]c3)ccc12` [Example 168, N,6-bis(1H-pyrazol-4-yl)-1H-indazole-3-carboxamide], the Ki (Table 1, Examples 141-279) is reported as 21.6 nM.
Work on `O=C(Nc1cnn(Cc2cccc(-c3nn[nH]n3)c2)c1)c1n[nH]c2cc(-c3cn[nH]c3)ccc12` [Example 48, 6-(1H-Pyrazol-4-yl)-1H-indazole-3-carboxylic acid {1-[3-(2H-tetrazol-5-yl)-benzyl]-1H-pyrazol-4-yl}-amide] yielded a Ki [1] of 0.01 to 1 nM.
Work on `CN1CC(c2ccc3c(C(=O)Nc4cnn(Cc5cccc(C#N)c5)c4)n[nH]c3c2)C1` [Example 191, N-[1-[(3-cyanophenyl)meth-yl]pyrazol-4-yl]-6-(1-methylazetidin-3-yl)-1H-indazole-3-carboxamide] yielded a Ki (Table 1, Examples 141-279) of 2400 nM.
With `N#Cc1cccc(Cn2cc(NC(=O)c3n[nH]c4ccc(Cl)cc34)cn2)c1` [Example 1, 5-chloro-N-(1-(3-cyanobenzyl)-1H-pyrazol-4-yl)-1H-indazole-3-carboxamide] the Ki [1] was 1 to 100 nM and the Ki [2] was 37.7 nM.
For `O=C(Nc1cnn(Cc2cc(Cl)cc(Cl)c2)c1)c1n[nH]c2ccccc12` [Example 57, N-(1-(3,5-dichlorobenzyl)-1H-pyrazol-4-yl)-1H-indazole-3-carboxamide], the Ki [1] was 1 to 100 nM.
Molecule `O=C(Nc1cnn(Cc2csc(N3CCOCC3)n2)c1)c1n[nH]c2cc(-c3cn[nH]c3)ccc12` [Example 41, N-[1-[(2-morpholinothiazol-4-yl)methyl]pyrazol-4-yl]-6-(1H-pyrazol-4-yl)-1H-indazole-3-carboxamide] has a Ki [1] of 1 to 100 nM.
With `O=C(O)c1ccc(Cn2cc(NC(=O)c3n[nH]c4cc(-c5cn[nH]c5)ccc34)cn2)o1` [Example 35, 5-(4-{[6-(1H-Pyrazol-4-yl)-1H-indazole-3-carbonyl]-amino}-pyrazol-1-ylmethyl)-furan-2-carboxylic acid] the Ki [1] was 1 to 100 nM.
In the case of `CCC(c1ccccc1)n1cc(NC(=O)c2n[nH]c3cc(-c4cncc(OC)c4)ccc23)cn1` (centres unmarked) [Example 214, 6-(5-methoxy-3-pyridyl)-N-[1-(1-phenylpropyl)py-razol-4-yl]-1H-indazole-3-carboxamide], the Ki (Table 1, Examples 141-279) is reported as 7.17 nM.
Molecule `O=C(Nc1cnn(Cc2ccc(Cl)cc2)c1)c1n[nH]c2ccccc12` [Example 58, N-(1-(4-chlorobenzyl)-1H-pyrazol-4-yl)-1H-indazole-3-carboxamide] has a Ki [1] of 1 to 100 nM and a Ki [2] of 39.2 nM.
